Experimental findings from US7612065B2, “Inhibitors of c-JUN N-terminal kinases (JNK)” (priority 2007, dated 2009) are described below.

Structures are written as SMILES.

For the test, the target named is T1, JNK3 (Homo sapiens, UniProt P53779).
T1 construct: One such construct encodes amino acid residues Ser40-Glu402 of JNK3α1 and is preceded by Met and Gly residues; Met-Gly (initiation methionine plus glycine added for the NcoI site); made in house; host or cells: E. coli BL21 (DE3)
T1 sequence (P53779 40-402): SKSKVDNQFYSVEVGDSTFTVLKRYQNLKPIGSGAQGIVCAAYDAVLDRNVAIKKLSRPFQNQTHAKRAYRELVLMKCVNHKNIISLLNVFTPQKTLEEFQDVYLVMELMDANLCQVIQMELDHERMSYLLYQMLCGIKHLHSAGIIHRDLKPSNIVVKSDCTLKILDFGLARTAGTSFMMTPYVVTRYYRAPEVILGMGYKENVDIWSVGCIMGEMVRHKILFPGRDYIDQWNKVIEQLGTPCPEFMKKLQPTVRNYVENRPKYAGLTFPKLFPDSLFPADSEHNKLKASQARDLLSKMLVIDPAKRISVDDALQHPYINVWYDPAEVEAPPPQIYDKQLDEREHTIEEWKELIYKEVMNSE
Nature of the test: JNK inhibition assay: spectrophotometric coupled-enzyme assay with activated JNK3. In kind it is biochemical. The conditions noted are these: activated JNK3 10 nM, 10 μM ATP, 200 μM EGF receptor peptide, 30° C., competitive inhibition model. The source says: A BLAST search of the EST database using the published JNK3α1 cDNA as a query identified an EST clone (#632588) that contained the entire coding sequence for human JNK3α1. Polymerase chain reactions (PCR) using pfu polymerase (Strategene) were used to introduce restriction sites into the cDNA for cloning into the pET-15B expression vector at the NcoI and BamHI sites. The protein was expressed in E. coli. […] This truncation corresponds to Ser 2 of JNK1 and JNK2 proteins, and is preceded by a methionine (initiation) and a glycine residue. The glycine residue was added in order to introduce an NcoI site for cloning into the expression vector. In addition, systematic C-terminal truncations were performed by PCR to identify a construct that give rise to diffraction-quality crystals.
5 mg of JNK3 was diluted to 0.5 mg/ml in 50 mM HEPES buffer, pH 7.5, containing 100 mM NaCl, 5 mM DTT, 20 mM MgCl2 and 1 mM ATP. GST-MKK7(DD) was added at a molar ratio of 1:2.5 GST-MKK7:JNK3. After incubation for 30 minutes at 25° C., the reaction mixture was concentrated 5-fold by ultrafiltration in a Centriprep-30 (Amicon, Beverly, Mass.), diluted to 10 ml and an additional 1 mM ATP added. This procedure was repeated three times to remove ADP and replenish ATP. The final addition of ATP was 5 mM and the mixture incubated overnight at 4° C.
The activated JNK3/GST-MKK7(DD) reaction mixture was exchanged into 50 mM HEPES buffer, pH 7.5, containing 5 mM DTT and 5% glycerol (w/v) by dialysis or ultrafiltration. The reaction mixture was adjusted to 1.1 M potassium phosphate, pH 7.5, and purified by hydrophobic interaction chromatography (at 25° C.) using a Rainin Hydropore column. […] Activated JNK3 (i.e. doubly phosphorylated JNK3) was stored at −70° C. at 0.25-1 mg/ml.
Compounds were assayed for the inhibition of JNK3 by a spectrophotometric coupled-enzyme assay. In this assay, a fixed concentration of activated JNK3 (10 nM) was incubated with various concentrations of a potential inhibitor dissolved in DMSO for 10 minutes at 30° C. in a buffer containing 0.1 M HEPES buffer, pH 7.5, containing 10 mM MgCl2, 2.5 mM phosphoenolpyruvate, 200 μM NADH, 150 μg/mL pyruvate kinase, 50 μg/mL lactate dehydrogenase, and 200 μM EGF receptor peptide. […] The reaction was initiated by the addition of 10 μM ATP and the assay plate is inserted into the spectrophotometer's assay plate compartment that was maintained at 30° C. The decrease of absorbance at 340 nm was monitored as a function of time. The rate data as a function of inhibitor concentration was fitted to competitive inhibition kinetic model to determine the Ki.
Usually Ki stands for the dissociation constant of the complex between target and ligand, obtained from inhibition or displacement. Consider `Cc1ccccc1-c1ccc2c(c1)N(Cc1cc(F)cc3c1OCOC3)C(=O)/C2=N\O` [Compound 316], for which the Ki was under 1000 nM.

`O=C(Nc1ccc2c(c1)N(Cc1cc(F)cc3c1OCOC3)C(=O)/C2=N\O)c1ccccc1Br` [Compound 343]: the Ki is under 1000 nM.

For the molecule `CS(=O)(=O)Nc1ccc2c(c1)N(Cc1cc(F)cc3c1OCOC3)C(=O)/C2=N\O` [Compound 262], the Ki is under 1000 nM.

As for `Cc1ccc(-c2ccc3c(c2)N(Cc2cc(F)cc4c2OCOC4)C(=O)/C3=N\O)cc1C` [Compound 331], the Ki was under 1000 nM.

In the case of `Nc1cccc2c1/C(=N/O)C(=O)N2Cc1cc(F)cc2c1OCOC2` [Compound 282], the Ki was at least 1000 nM.

As for `CC(C)=Cc1cccc2c1/C(=N/O)C(=O)N2Cc1cc(F)cc2c1OCOC2` [Compound 336], the Ki was under 1000 nM.

As to `O=C1/C(=N\O)c2c(Br)cccc2N1Cc1cc(F)cc2c1OCOC2` [Compound 201], the Ki was under 1000 nM.

As to `C[C@H](NC(=O)OCC1c2ccccc2-c2ccccc21)C(=O)Nc1ccc2c(c1)N(Cc1cc(F)cc3c1OCOC3)C(=O)/C2=N\O` [Compound 352], the Ki was at least 1000 nM.

`CC(=O)c1ccc(-c2ccc3c(c2)N(Cc2cc(F)cc4c2OCOC4)C(=O)/C3=N\O)cc1` [Compound 330]: the Ki is under 1000 nM.

In the case of `Cc1cc(C)c2c(c1)/C(=N/O)C(=O)N2Cc1ccccn1` [Compound 110], the Ki was at least 1000 nM.

`O=C(Nc1ccc2c(c1)/C(=N/O)C(=O)N2Cc1ccccc1)c1ccccc1` [Compound 115]: the Ki was at least 1000 nM.

Regarding `O=C(NCc1cccc(Cl)c1)c1ccc2c(c1)N(Cc1cc(F)cc3c1OCOC3)C(=O)/C2=N\O` [Compound 234], the Ki is at least 1000 nM.

As to `O=C(NCCc1ccccn1)c1ccc2c(c1)N(Cc1cc(F)cc3c1OCOC3)C(=O)/C2=N\O` [Compound 239], the Ki was at least 1000 nM.

Turning to `O=C(NCCN1CCCC1)c1ccc2c(c1)N(Cc1cc(F)cc3c1OCOC3)C(=O)/C2=N\O` [Compound 289], the Ki is at least 1000 nM.

For the molecule `COc1ccccc1-c1nc(CN2C(=O)/C(=N\O)c3cc(F)ccc32)no1` [Compound 81], the Ki was at least 1000 nM.

Turning to `CCS(=O)(=O)Nc1ccc2c(c1)N(Cc1cc(F)cc3c1OCOC3)C(=O)/C2=N\O` [Compound 263], the Ki is under 1000 nM.

As to `CCC(C(=O)Nc1ccc2c(c1)N(Cc1cc(F)cc3c1OCOC3)C(=O)/C2=N/O)c1ccccc1` (stereo not shown) [Compound 323], the Ki was under 1000 nM.

As for `COC(=O)c1cccc(CN2C(=O)/C(=N/O)c3ccc(CBr)cc32)c1` [Compound 189], the Ki was under 1000 nM.

With `O=C1/C(=N\O)c2c(-c3ccc(F)cc3)cccc2N1Cc1cc(F)cc2c1OCOC2` [Compound 204], the inhibition constant (Ki) was at least 1000 nM.

With `CC(C)CCN(CCC(C)C)c1ccc2c(c1)/C(=N/O)C(=O)N2Cc1cc(F)cc2c1OCOC2` [Compound 308], the Ki was at least 1000 nM.

Turning to `O=C(Nc1ccc2c(c1)N(Cc1cc(F)cc3c1OCOC3)C(=O)/C2=N\O)c1cc2ccccc2o1` [Compound 221], the Ki was under 1000 nM.

`COC(=O)CNC(=O)c1ccc2c(c1)N(Cc1cc(F)cc3c1OCOC3)C(=O)/C2=N\O` [Compound 288]: the Ki is at least 1000 nM.

As for `O=C1/C(=N\O)c2ccccc2N1Cc1cccc(Cl)c1` [Compound 9], the Ki was at least 1000 nM.

Turning to `COc1ccc(CN2C(=O)/C(=N\O)c3cc(F)ccc32)cc1` [Compound 78], the Ki is at least 1000 nM.

Regarding `O=C1/C(=N\O)c2cc(F)ccc2N1Cc1ccc([N+](=O)[O-])cc1` [Compound 55], the Ki was at least 1000 nM.

In the case of `COc1ccc(-c2nc(CN3C(=O)/C(=N\O)c4cc(C)cc(C)c43)no2)cc1` [Compound 91], the Ki was at least 1000 nM.

For the molecule `O=C1/C(=N\O)c2cc(Br)ccc2N1Cc1ccccc1F` [Compound 29], the Ki was at least 1000 nM.

For the molecule `CC(=O)NCC(=O)NCC(=O)Nc1ccc2c(c1)N(Cc1cc(F)cc3c1OCOC3)C(=O)/C2=N\O` [Compound 347], the Ki is at least 1000 nM.

Consider `O=C1/C(=N\O)c2cc(F)ccc2N1Cc1cccc(Oc2ccccc2)c1` [Compound 82], for which the Ki was at least 1000 nM.

Consider `O=C(Nc1ccc2c(c1)N(Cc1cc(F)cc3c1OCOC3)C(=O)/C2=N\O)c1ccc(Cl)cc1Cl` [Compound 252], for which the inhibition constant Ki was at least 1000 nM.

As for `CC(C)CCNC(=O)c1ccc2c(c1)N(Cc1cc(F)cc3c1OCOC3)C(=O)/C2=N\O` [Compound 294], the Ki is at least 1000 nM.

Take `Cc1cc(C)c2c(c1)/C(=N/O)C(=O)N2Cc1ccccc1C#N` [Compound 89]: the Ki is at least 1000 nM.

With `O=C1/C(=N\O)c2cc(F)ccc2N1Cc1cccc([N+](=O)[O-])c1` [Compound 79], the Ki is at least 1000 nM.

As for `CCNC(=O)c1ccc2c(c1)N(Cc1cc(F)cc3c1OCOC3)C(=O)/C2=N\O` [Compound 291], the Ki is at least 1000 nM.

For `COc1ccc(-c2ccc3c(c2)N(Cc2cc(F)cc4c2OCOC4)C(=O)/C3=N\O)cc1` [Compound 329], the Ki is at least 1000 nM.

Regarding `CC(C)S(=O)(=O)Nc1ccc2c(c1)N(Cc1cc(F)cc3c1OCOC3)C(=O)/C2=N\O` [Compound 264], the Ki was at least 1000 nM.

Consider `O=C(Nc1ccc2c(c1)N(Cc1cc(F)cc3c1OCOC3)C(=O)/C2=N\O)c1ccccc1` [Compound 247], for which the Ki is under 1000 nM.

`COc1ccc(CN2C(=O)/C(=N\O)c3cc(C)cc(C)c32)cc1` [Compound 87]: the Ki was at least 1000 nM.

As for `O=C1/C(=N/O)c2ccc(-c3ccsc3)cc2N1CCOc1ccccc1` [Compound 183], the Ki is at least 1000 nM.

As to `COc1cc(CN2C(=O)/C(=N\O)c3cc(NC(=O)CCc4ccccc4)ccc32)cc(OC)c1` [Compound 131], the inhibitory constant (Ki) was at least 1000 nM.

Take `COc1cccc(OC)c1C(=O)Nc1ccc2c(c1)N(Cc1cc(F)cc3c1OCOC3)C(=O)/C2=N\O` [Compound 340]: the Ki was at least 1000 nM.

`O=C1/C(=N\O)c2cc(Cl)ccc2N1Cc1c(Cl)cccc1Cl` [Compound 4]: the Ki is under 1000 nM.

Consider `CC(C)c1ccc(-c2ccc3c(c2)N(Cc2cc(F)cc4c2OCOC4)C(=O)/C3=N\O)cc1` [Compound 334], for which the Ki was at least 1000 nM.

In the case of `COC(=O)CCCN1C(=O)/C(=N/O)c2ccc(-c3ccsc3)cc21` [Compound 186], the Ki is at least 1000 nM.

For the molecule `O=C(Nc1ccc2c(c1)N(Cc1cc(F)cc3c1OCOC3)C(=O)/C2=N\O)N1CCOCC1` [Compound 269], the Ki is under 1000 nM.

As for `COc1cc(CN2C(=O)/C(=N\O)c3cc(Cl)ccc32)cc(OC)c1` [Compound 74], the Ki was under 1000 nM.

With `Cc1cc(C)c2c(c1)/C(=N/O)C(=O)N2Cc1csc(-c2ccc(Cl)cc2)n1` [Compound 96], the Ki is at least 1000 nM.

With `COc1cc(CN2C(=O)/C(=N\O)c3c(Br)cccc32)cc(OC)c1` [Compound 199], the inhibition constant (Ki) was under 1000 nM.

Consider `Cc1cc(C)c2c(c1)N(Cc1cc(F)cc3c1OCOC3)C(=O)/C2=N\O` [Compound 167], for which the Ki is under 1000 nM.

Take `CN1CCCC1CCNC(=O)c1ccc2c(c1)N(Cc1cc(F)cc3c1OCOC3)C(=O)/C2=N\O` (stereo not shown) [Compound 297]: the Ki was at least 1000 nM.

Turning to `CS(=O)(=O)c1ccc(CN2C(=O)/C(=N\O)c3cc(F)ccc32)cc1` [Compound 83], the Ki is at least 1000 nM.

For `O=C(CN1C(=O)/C(=N\O)c2cc(Br)ccc21)OCc1ccccc1` [Compound 158], the Ki was at least 1000 nM.

With `O=Cc1ccccc1-c1ccc2c(c1)N(Cc1cc(F)cc3c1OCOC3)C(=O)/C2=N\O` [Compound 315], the Ki was under 1000 nM.

Regarding `O=C(Nc1ccc2c(c1)N(Cc1cc(F)cc3c1OCOC3)C(=O)/C2=N\O)c1ccco1` [Compound 226], the Ki was under 1000 nM.

Take `COc1cc(CN2C(=O)/C(=N\O)c3ccc(C)cc32)cc(OC)c1` [Compound 150]: the Ki is under 1000 nM.

Take `O=C1/C(=N\O)c2ccc(-c3ccc(F)cc3F)cc2N1Cc1cc(F)cc2c1OCOC2` [Compound 313]: the Ki was under 1000 nM.

With `O=C(O)c1ccc(-c2ccc3c(c2)N(Cc2cc(F)cc4c2OCOC4)C(=O)/C3=N\O)cc1` [Compound 154], the Ki is under 1000 nM.

On to `O=C1/C(=N\O)c2ccccc2N1Cc1cccc([N+](=O)[O-])c1` [Compound 62], for which the Ki is under 1000 nM.
